Measurements taken from PMC11367503, “Exploring galectin interactions with human milk oligosaccharides and blood group antigens identifies BGA6 as a functional galectin-4 ligand” (The Journal of Biological Chemistry, 2024).
Several values for one entry are separate records, joined by “and”; a condition that tells them apart may be missing. Equal entries are not always repeated. Values belong to the molecule of their own block, whether it stands above or below them.

Assays:
human Gal-7 [1] = molecular target: T1, human Gal-7 (Homo sapiens, UniProt P47929); experiment: Isothermal titration calorimetry (ITC), Gal-7; format: binding; conditions: Gal-7, PBS, 298 K, n fixed to 1.00
T1 construct: made in house; host or cells: Escherichia coli BL21 (DE3)
T1 sequence (P47929 whole entry): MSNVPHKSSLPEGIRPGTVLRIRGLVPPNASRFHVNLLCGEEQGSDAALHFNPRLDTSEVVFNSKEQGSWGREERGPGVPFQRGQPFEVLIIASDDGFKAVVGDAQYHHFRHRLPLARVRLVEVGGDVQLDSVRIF
Experimental: (§1) All ITC experiments were performed by using a NanoITC (TA Instruments) under previously optimized conditions ([89]). A typical titration involved 20 injections at 300 s intervals of 2.5 μl aliquots of a 2.5 to 10 mM ligand solution into the sample cell (volume 200 μl) containing the different galectins (30–100 μM). The solutions were prepared by dissolving the glycan ligands in degassed PBS buffer at 298 K. The titration cell was continuously stirred at 300 rev/min. The heats of dilution of the ligands in the buffer were subtracted from the titration data. […] Fitting was performed using the Nano Analyze software (TA Instruments; https://www.tainstruments.com/itcrun-dscrun-nanoanalyze-software/) to determine association constants (Ka) and the enthalpy change (ΔH). No reliable fit of the thermodynamic parameters could be obtained for binding affinities above 80 μM.

human Gal-7 [2] = molecular target: T1, human Gal-7; experiment: Competitive solid-phase assay (SPA), immobilized asialofetuin, Gal-7; format: binding; conditions: competitive SPA, immobilized asialofetuin; mean ± S.D., three independent experiments
Experimental: (§2) The assay was adapted from Rapoport et al. (2010) ([88]). Briefly, 96-well plates (flat-bottom) were coated with 10 μg/ml asialofetuin (ASF, Sigma-Aldrich) in sodium carbonate buffer (pH 9.6) and incubated overnight at 4 °C. Then, wells were washed three times with 100 μl/well PBS-Tween 0.05% (w/v) and blocked with 100 μl/well PBS-bovine serum albumin (BSA) 2% (1 h, room temperature (RT)) in a humid chamber. Meanwhile, equal volumes of human recombinant Gal-1, -3, -4, -7, and -12 (20–40 μg/ml) in PBS-BSA 0.3% buffer were preincubated with the corresponding inhibitors in serial dilutions (2 h, 37 °C). After washing, galectins were detected using the corresponding antigalectin primary detection antibodies in PBS-BSA 0.3% w/v (1 h at RT). For Gal-1, wells were incubated with an in-house purified 100 ng/ml biotinylated rabbit anti–human Gal-1 polyclonal immunoglobulin G. For Gal-3, -4, and -7, a 1:500 dilution of the corresponding biotinylated anti-human galectin antibodies was used (BAF1154, BAF1227, and MAB13391, respectively, R&D Systems). For Gal-12, a rabbit anti-human Gal-12 polyclonal antibody (Santa Cruz Biotechnology, 1:700) was used. For Gal-1, -3, -4, and -7, plates were rinsed three times before adding 0.33 μg/ml horseradish peroxidase (HRP)-labeled streptavidin (Sigma-Aldrich) for 30 min. For Gal-12, an anti-rabbit secondary antibody conjugate coupled to HRP was incubated for 1 h at RT in PBS-BSA 0.3% w/v. After washing, 100 μl TMB solution (0.1 mg/ml tetramethylbenzidine and 0.06% H2O2 in citrate-phosphate buffer, pH 5.0) was added to plates. The reaction was stopped by adding a 2N H2SO4 solution. Absorbance was determined at 450 nm in a Multiskan MS microplate reader (Thermo Fisher Scientific).

human Gal-3 = molecular target: T2, human Gal-3 (Homo sapiens, UniProt P17931); experiment: Competitive solid-phase assay (SPA), immobilized asialofetuin, Gal-3; format: binding; conditions: mean ± S.D., three independent experiments
T2 construct: made in house; host or cells: Escherichia coli BL21 (DE3)
T2 sequence (P17931 whole entry): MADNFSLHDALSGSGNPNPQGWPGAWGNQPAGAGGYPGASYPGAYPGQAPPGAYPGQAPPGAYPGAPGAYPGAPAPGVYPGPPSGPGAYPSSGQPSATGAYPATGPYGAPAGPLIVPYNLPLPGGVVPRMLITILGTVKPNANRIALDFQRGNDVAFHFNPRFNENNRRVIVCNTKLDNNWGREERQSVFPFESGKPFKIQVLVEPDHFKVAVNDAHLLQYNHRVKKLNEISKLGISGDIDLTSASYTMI
Experimental: as §2

human Gal-12 [3] = molecular target: T3, human Gal-12 (Homo sapiens, UniProt Q96DT0); experiment: Competitive solid-phase assay (SPA), immobilized asialofetuin, Gal-12; format: binding; conditions: mean ± S.D., three independent experiments
T3 construct: To obtain full-length human Gal-12, we adapted our previously optimized procedure for murine Gal-12; made in house; host or cells: Escherichia coli Rosetta 2 (DE3)
T3 sequence (Q96DT0 1-336): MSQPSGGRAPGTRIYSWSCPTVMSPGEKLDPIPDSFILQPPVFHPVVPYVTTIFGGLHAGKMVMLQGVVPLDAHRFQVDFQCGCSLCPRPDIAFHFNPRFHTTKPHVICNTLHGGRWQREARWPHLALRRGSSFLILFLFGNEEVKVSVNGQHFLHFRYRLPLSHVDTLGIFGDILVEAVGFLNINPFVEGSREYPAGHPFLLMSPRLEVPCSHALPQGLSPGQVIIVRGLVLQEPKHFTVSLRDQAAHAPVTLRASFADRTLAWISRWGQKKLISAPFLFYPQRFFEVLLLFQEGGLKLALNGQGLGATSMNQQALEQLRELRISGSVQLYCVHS
Experimental: as §2

human Gal-1 = molecular target: T4, human Gal-1 (Homo sapiens, UniProt P09382); experiment: Competitive solid-phase assay (SPA), immobilized asialofetuin, Gal-1; format: binding; conditions: mean ± S.D., three independent experiments
T4 construct: made in house; host or cells: Escherichia coli BL21 (DE3)
T4 sequence (P09382 whole entry): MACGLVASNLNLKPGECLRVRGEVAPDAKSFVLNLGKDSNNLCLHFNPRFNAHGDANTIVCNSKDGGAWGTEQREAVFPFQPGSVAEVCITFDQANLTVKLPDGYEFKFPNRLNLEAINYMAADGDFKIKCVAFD
Experimental: as §2

human Gal-12 [4] = molecular target: T3, human Gal-12; experiment: Isothermal titration calorimetry (ITC), Gal-12; format: binding; conditions: Gal-12, PBS, 298 K, n fixed to 1.00
Experimental: as §1

human Gal-4 [5] = molecular target: T5, human Gal-4 (Homo sapiens, UniProt P56470); experiment: Competitive solid-phase assay (SPA), immobilized asialofetuin, Gal-4; format: binding; conditions: mean ± S.D., three independent experiments
T5 construct: His6-SUMO (N, cleaved yes); made in house; host or cells: Escherichia coli BL21 (DE3)
T5 sequence (P56470 1-323): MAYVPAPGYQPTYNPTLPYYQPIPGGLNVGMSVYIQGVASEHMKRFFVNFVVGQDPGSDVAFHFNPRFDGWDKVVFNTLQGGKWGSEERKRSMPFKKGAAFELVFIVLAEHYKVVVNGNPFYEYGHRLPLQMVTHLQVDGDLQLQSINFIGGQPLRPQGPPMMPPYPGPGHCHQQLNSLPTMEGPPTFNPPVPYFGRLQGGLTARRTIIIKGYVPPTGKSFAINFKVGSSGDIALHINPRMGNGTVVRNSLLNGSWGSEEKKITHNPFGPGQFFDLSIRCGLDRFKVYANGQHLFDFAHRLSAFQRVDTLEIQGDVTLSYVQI
Experimental: as §2

human Gal-4 [6] = molecular target: T5, human Gal-4; experiment: Inhibition of Gal-4-driven IL-6 secretion by activated PBMCs (IL-6 ELISA); format: cell-based; conditions: Gal-4 50 or 100 μg/ml; BGA6 0.5, 1, 2.5 and 5 mM; 72 h; anti-CD3/CD28 activated PBMCs
Experimental: (§3) PBMCs were isolated from anonymous healthy volunteer buffy coats (Fundación Hemocentro Blood Bank, Buenos Aires, Argentina), using Ficoll-Hypaque density gradient (Lymphoprep). The samples were then centrifuged at 1500 rpm for 25 min, and the interface corresponding to mononuclear cells was carefully removed and diluted with PBS supplemented with 2% fetal bovine serum. To reduce platelet contamination, three washing steps with PBS 2% fetal bovine serum were performed, and freshly isolated PBMCs were subsequently resuspended in complete RPMI medium. To obtain a bead to T-cell ratio of 1:1, approximately 16 × 10^4 PBMCs were activated with 2 μl of Dynabeads Human T-Activator CD3/CD28 (Gibco). After 24 h stimulation at 37 °C and 5% CO2, cells were incubated with human recombinant Gal-4 (25, 50, or 100 μg/ml) in the absence or presence of BGA6 (0.5, 1, 2.5, and 5 mM) for an additional time period of 72 h.
(§4) Human IL-6 was determined in supernatants from activated PBMCs exposed or not to Gal-4 in the absence or presence of BGA6 using specific ELISA kits (BD Biosciences), according to the manufacturer's instructions. Briefly, 96-well plates (Costar) were coated with capture antibody during 18 h at 4 °C. […] Reaction was stopped with 2N H2SO4, and the absorbance was measured at 450 nm using a plate spectrophotometer (Multiskan).

human Gal-4 [7] = molecular target: T5, human Gal-4; experiment: Isothermal titration calorimetry (ITC), Gal-4; format: binding; conditions: Gal-4, PBS, 298 K; for Kd: n fixed to 1.00
Experimental: as §1

Gal-1 = molecular target: Gal-1; parameters: method as in PMID 15476813; conditions: at 298 K; read-out: dissociation constant reported for Gal-1/LacNAc interactions; cited from earlier work
human PBMCs = experiment: IL-6 secretion by anti-CD3/CD28-activated PBMCs cultured with Gal-4 (IL-6 ELISA); format: cell-based; conditions: Gal-4 25, 50 or 100 μg/ml, 72 h
Experimental: as §3, §4

Molecule: CC(=O)NC1C(O)CC(OC2C(O)C(CO)OC(OC3C(CO)OC(O)C(O)C3O)C2O)(C(=O)O)OC1C(O)C(O)CO (centres unmarked) [3’-SL, 3′-sialyllactose]
- Kd (human Gal-7 [1]): 97 ± 9 µM
- IC50 (human Gal-7 [2]): 1700 ± 200 µM
- IC50 (human Gal-3): 11000 ± 900 µM
- IC50 (human Gal-12 [3]): 11100 ± 1000 µM
- IC50 (human Gal-1): 2200 ± 30 µM

Molecule: CC(=O)NC1C(O)CC(OC2C(O)C(CO)OC(OC3C(CO)OC(O)C(O)C3OC3OC(C)C(O)C(O)C3O)C2O)(C(=O)O)OC1C(O)C(O)CO (centres unmarked) [SFL, 3’-sialyl-3-fucosyllactose]
- IC50 (human Gal-7 [2]): 4800 ± 900 µM
- Kd (human Gal-12 [4]): 151 ± 11 µM
- IC50 (human Gal-3): 39000 ± 600 µM
- IC50 (human Gal-12 [3]): 3200 ± 400 µM
- IC50 (human Gal-1): 5700 ± 100 µM

Molecule: CC(=O)NC1C(OC2C(O)C(CO)OC(OC3C(CO)OC(O)C(O)C3O)C2O)OC(CO)C(O)C1OC1OC(CO)C(O)C(O)C1O (centres unmarked) [LNT, lacto-N-tetraose]
- IC50 (human Gal-4 [5]): 15100 ± 200 µM
- Kd (human Gal-7 [1]): 106 ± 8 µM
- IC50 (human Gal-7 [2]): 2000 µM
- IC50 (human Gal-3): ~1800 µM and 1800 µM
- IC50 (human Gal-12 [3]): 30100 ± 5000 µM
- IC50 (human Gal-1): 1600 ± 100 µM

Molecule: CC(=O)NC1C(O)OC(CO)C(OC2OC(CO)C(O)C(O)C2O)C1OC1OC(C)C(O)C(O)C1O (centres unmarked) [Le^X, Lewis X trisaccharide]
- IC50 (human Gal-4 [5]): 26200 ± 900 µM
- IC50 (human Gal-7 [2]): 15100 ± 2000 µM
- Kd (human Gal-12 [4]): 80 ± 9 µM
- IC50 (human Gal-3): 9500 ± 500 µM
- IC50 (human Gal-12 [3]): 2000 ± 300 µM
- IC50 (human Gal-1): 8200 ± 900 µM

Molecule: CC(=O)NC1C(O)OC(CO)C(OC2OC(CO)C(O)C(O)C2O)C1O (centres unmarked) [LacNAc, N-acetyllactosamine]
- IC50 (human Gal-4 [5]): 25800 µM
- IC50 (human Gal-7 [2]): 2500 µM and 2490 µM
- Kd (Gal-1): 76 µM
- IC50 (human Gal-3): 2000 ± 200 µM
- IC50 (human Gal-12 [3]): 36000 ± 900 µM
- IC50 (human Gal-1): 1300 ± 100 µM

B1: Gal-4: recombinant full-length human galectin-4, tandem-repeat type lectin expressed in E. coli (protein)
chain: T5 sequence (P56470 1-323)
modifications: left off: His6, N-terminal, cleaved | SUMO, N-terminal, cleaved
notes: recombinant full-length human galectin-4, tandem-repeat type lectin expressed in E. coli
- secretion of IL-6 by human-activated T lymphocytes in PBMCs (human PBMCs): significant and dose-dependent increase

Other lines, results leading:

- IC50 (human Gal-4 [5]): 200 ± 100 µM
- IC50 (human Gal-7 [2]): 5400 ± 700 µM
- Gal-4-driven IL-6 secretion by human activated PBMCs in presence of BGA6 (human Gal-4 [6]): effectively suppressed
- -TΔS (human Gal-4 [7]): 1.77 ± 0.14 kcal/mol
- ΔH (human Gal-4 [7]): -7.65 ± 0.72 kcal/mol
- Kd (human Gal-4 [7]): 51 ± 3 µM
- IC50 (human Gal-3): 1500 ± 300 µM
- IC50 (human Gal-12 [3]): 27100 ± 1000 µM
- IC50 (human Gal-1): 5000 µM and 5020 µM
Molecule: CC(=O)NC1C(OC2C(O)C(CO)OC(OC3C(CO)OC(O)C(O)C3O)C2OC2OC(C)C(O)C(O)C2O)OC(CO)C(O)C1O (centres unmarked) [BGA6, blood group A antigen tetraose 6]

- IC50 (human Gal-4 [5]): 200 µM and 240 µM
- Kd (human Gal-7 [1]): 103 ± 8 µM
- IC50 (human Gal-7 [2]): 2200 ± 400 µM
- -TΔS (human Gal-4 [7]): 0.263 ± 0.048 kcal/mol
- ΔH (human Gal-4 [7]): -5.98 ± 0.48 kcal/mol
- Kd (human Gal-4 [7]): 65 ± 5 µM
- IC50 (human Gal-3): 1900 ± 400 µM
- IC50 (human Gal-12 [3]): 25300 ± 12000 µM
- IC50 (human Gal-1): 6300 µM and 6320 µM
Molecule: CC(=O)NC1C(O)OC(CO)C(OC2OC(CO)C(O)C(OC3OC(CO)C(O)C(O)C3NC(C)=O)C2OC2OC(C)C(O)C(O)C2O)C1O (centres unmarked) [BGA2, blood group A antigen 2]
